In article PMC10787068, “Targeting the Mitochondrial Chaperone TRAP1 Alleviates Vascular Pathologies in Ischemic Retinopathy” (Advanced Science, 2023):
“Also recorded” adds a separate entry of the source. Non-standard residues stand in square brackets, D forms with d. Residues, ends and D or L forms follow the SMILES beside them. *: point of attachment. Nle = CCCC[C@H](N)C(=O)O; Cbz = O=C(OCc1ccccc1)*

Tests used:
Format in all cases: cell-based, human
calpain‐1 = experiment: Calpain‐1 activation (autolysis, western blotting) in MIO‐M1 cells; conditions: MIO‐M1 cells with 3 µM gamitrinib or 0.5 µM MitoQ, 6 h, hypoxia; BAPTA 10 µM, ALLN 10 µM
Method: (§1) Figure 5 TRAP1 inhibition induces mPTP opening, mitochondrial calcium discharge, and calpain‐1 activation. A) Visualization of cytoplasmic calcium. Fluo‐4 AM‐labeled MIO‐M1 cells were incubated with the TRAP1 inhibitors gamitrinib and MitoQ^[ [32], [41] ^] for 6 h or thapsigargin for 30 min under hypoxia, and analyzed by confocal microscopy. Scale bars, 10 µm and 2 µm (inset). […] MIO‐M1 cells were treated with a TRAP1 inhibitor, 3 µM gamitrinib or 0.5 µM MitoQ, for 6 h under hypoxia (n = 4). Enzyme activity was measured using a fluorogenic calpain substrate as described in the Experimental Section. C) Restored HIF1α expression upon CypD inhibition. MIO‐M1 cells were incubated with control or CypD‐targeting siRNAs, treated with the TRAP1 inhibitor MitoQ for 6 h under hypoxia, harvested, and analyzed by western blotting. Black and red arrows indicate pro and autolyzed forms of calpain‐1, respectively. […] MIO‐M1 cells were incubated with TRAP1‐targeting siRNAs for 48 h, exposed to hypoxia for 6 h, harvested, and analyzed by qPCR (n = 4). […] Cells were then analyzed by flow cytometry to detect cytoplasmic calcium. […] MIO‐M1 cells were incubated with TRAP1 inhibitors, 3 µM gamitrinib, and 0.5 µM MitoQ, and a cell‐permeable calcium chelator, BAPTA (10 µM), for 6 h as indicated under hypoxia and analyzed by western blotting. […] Data information: Data are expressed as mean ± SEM. […]

HIF1α = HIF1α degradation in MIO‐M1 cells under hypoxia (western blotting); conditions: western blotting; for effect of co-treatment on HIF1α degradation triggered by TRAP1 inhibition: MIO‐M1 cells with gamitrinib or MitoQ, 6 h, hypoxia, BAPTA 10 µM, ALLN 10 µM
cytoplasmic Hsp90 = experiment: Cytoplasmic Hsp90 inhibition in MIO-M1 cells (western blotting); conditions: 6 hr
Method: Cells and tissue samples were lysed using RIPA buffer (50 mM Tris, pH 8.0, 150 mM NaCl, 1% NP‐40, and 0.25% N‐deoxycholate) containing protease and phosphatase inhibitor cocktails (Roche). Lysates were separated by SDS‐PAGE and transferred to PVDF membranes. The membranes were blocked with 10% skim milk prepared in TBST (TBS (50 mM Tris and 150 mM NaCl, pH 7.6) containing 0.05% Tween‐20) for 1 h at RT and incubated with primary antibodies in antibody diluent solution (TBS containing 3 mM sodium azide and 0.1% BSA) overnight at 4 °C. After washing with TBST, the membranes were incubated with secondary antibodies for 1 h in 10% skim milk prepared in TBST. Finally, the membranes were washed three times with TBST, treated with ECL solution (Bio‐Rad; Hercules, CA, USA), and analyzed using a LAS4000 system (GE Healthcare; Chicago, IL, USA).
inhibitor) and gamitrinib as indicated for 6 hr, harvested, and analyzed by western blotting.
C) Cytoplasmic Hsp90 inhibition. MIO-M1
cells were incubated with DMAG (an Hsp90 inhibitor) as indicated for 6 hr under normoxia
or hypoxia and analyzed by western blotting.

MIO‐M1 cells = experiment: Cytoplasmic calcium (Fluo‐4 AM) in MIO‐M1 cells; conditions: Fluo‐4 AM‐labeled MIO‐M1 cells under hypoxia; MitoQ 6 h, thapsigargin 30 min
Method: as §1

Trap1 KO MIO-M1 cells = experiment: TRAP1 inhibitor effects in Trap1 KO MIO‐M1 cells
Method: MIO‐M1 Trap1 KO cell lines were generated using CRISPR/Cas9‐derived RNA‐guided endonucleases (Toolgen; Seoul, Republic of Korea). MIO‐M1 cells were co‐transfected with the Cas9 vector and TRAP1‐sgRNA expression vector (sgRNA sequence 1; 5′‐[…]‐3′ and sequence 2; 5′‐[…]‐3′) using jetPRIME transfection reagent (Polyplus; Illkirch‐Graffenstaden, France). Transfected cells were selected in culture medium containing […] puromycin (Sigma). Single‐cell colonies were collected using a cloning cylinder (I.D. × H 6.4 mm × 8 mm; Sigma) and analyzed using T7 endonuclease I to confirm Trap1 KO.
Supplementary Figure 16. Calpain-1 autolysis and HIF1α degradation in Trap1 […]
A) HIF1α degradation and calpain-1 autolysis in Trap1 knockout (KO) MIO-M1 cells. Trap1 KO MIO-M1 cells were generated as described in the Experimental Section and incubated in hypoxia for 6 hr, followed by analysis using western blotting. Under hypoxia, HIF1α degradation and autoproteolysis of calpain-1 were found in Trap1 KO MIO-M1 cells, when compared with wild type (WT) cells. […]
cell lines were established using MIO-M1 cells. WT and KO cells were incubated with MitoQ for 6 hr under hypoxia and analyzed by western blotting. Trap1 KO reduced the expression of […]
Quantification of the HIF1α protein level. HIF1α western blot density was analyzed and compared. Data are expressed as mean ± SEM from four independent experiments.
C) Cytoplasmic calcium concentration. WT and Trap1-KO MIO-M1 cells were labeled with […]
Fluo-4 AM, incubated with 3 μM gamitrinib or 1 μM MitoQ for 6 hr under hypoxia, collected, and analyzed by flow cytometry. Data information: Data are expressed as mean ± SEM.
Student t-test, ***P < 0.001; ns, not significant. […]

calpain = experiment: Calpain activity assay in MIO‐M1 cells; conditions: 3 µM gamitrinib or 0.5 µM MitoQ, 6 h under hypoxia, fluorogenic calpain substrate, n = 4
Method: as §1

CCCC[C@@H](C=O)NC(=O)[C@H](CC(C)C)NC(=O)[C@H](CC(C)C)NC(C)=O [ALLN] (Ac-Leu-Leu-[Nle]-aldehyde)
effect of co-treatment on calpain‐1 activation triggered by TRAP1 inhibition (calpain‐1): fully reversed
effect of co-treatment on HIF1α degradation triggered by TRAP1 inhibition (HIF1α): fully reversed

O=C(O)CN(CC(=O)O)c1ccccc1OCCOc1ccccc1N(CC(=O)O)CC(=O)O [BAPTA, 1,2‐bis (o‐aminophenoxy) ethane‐N, N, N', N'‐tetraacetic acid]
effect of co-treatment on calpain‐1 activation triggered by TRAP1 inhibition (calpain‐1): fully reversed
effect of co-treatment on HIF1α degradation triggered by TRAP1 inhibition (HIF1α): fully reversed

CO[C@H]1/C=C\C=C(/C)C(=O)NC2=CC(=O)C(NCCN(C)C)=C(C[C@@H](C)C[C@H](OC)[C@H](O)[C@@H](C)/C=C(\C)[C@@H]1OC(N)=O)C2=O [DMAG, 17‐Dimethyl‐aminothylamino‐17‐demethoxy‐geldanamycin]
stress response protein Hsp70 level (cytoplasmic Hsp90): upregulated
stability of HIF1α (HIF1α; MIO-M1 cells, 6 hr under normoxia or hypoxia): did not affect

COC(=O)CNC(=O)C(=O)OC [DMOG, dimethyloxalylglycine]
effect of co-treatment on HIF1α degradation triggered by TRAP1 inhibition (HIF1α): did not affect; also recorded: unaffected

CC(C)C[C@@H](C=O)NC(=O)[C@H](CC(C)C)NC(=O)[C@H](CC(C)C)NC(=O)OCc1ccccc1 [MG132] (Cbz-Leu-Leu-Leu-aldehyde)
effect of co-treatment on HIF1α degradation triggered by TRAP1 inhibition (HIF1α): completely restored; also recorded: completely blocked

CC(=O)N[C@@H](CSC(=O)[C@]1([C@@H](O)C(C)C)NC(=O)[C@H](C)[C@@H]1O)C(=O)O [lactacystin]
effect of co-treatment on HIF1α degradation triggered by TRAP1 inhibition (HIF1α): not effectively restored; also recorded: did not

O=C(O)CCC(=O)O [succinate]
effect of co-treatment on HIF1α degradation triggered by TRAP1 inhibition (HIF1α): did not affect; also recorded: unaffected

C/C=C(/C)C(=O)O[C@H]1C(C)=C2[C@H]([C@@H]1OC(=O)CCCCCCC)[C@@](C)(OC(C)=O)C[C@H](OC(=O)CCC)[C@@]1(O)[C@H]2OC(=O)[C@@]1(C)O [thapsigargin]
cytoplasmic calcium (MIO‐M1 cells): substantial calcium release

gamitrinib
cytosolic calcium concentration in Trap1−/− cells (Trap1 KO MIO-M1 cells; 3 μM gamitrinib or 1 μM MitoQ, 6 hr under hypoxia, Fluo-4 AM flow cytometry): did not affect
HIF1α expression in Trap1−/− cells (Trap1 KO MIO-M1 cells; 6 hr under hypoxia, western blotting): did not affect
calpain‐1 activation in Trap1−/− cells (Trap1 KO MIO-M1 cells; hypoxia): did not affect
calpain enzyme activity (calpain): Calpain activation
